Assay [1] addresses α-glucosidase. As to the kind of experiment: PNPG hydrolysis assay, absorbance at […] nm. Format: biochemical.
Assay [2] has as its target α-glucosidase. As to the kind of experiment: PNPG hydrolysis assay, absorbance at […] nm; maximum inhibition […] at […]. It is filed as biochemical.

In the case of `N#CC(O)c1ccc(O)cc1` (centres unmarked) [4-hydroxymandelonitrile], the half-inhibitory concentration (IC50) (usually the midpoint of a concentration-inhibition curve) at α-glucosidase [1] was found to be 15.8 µM.

Compound eleutheroside E gave an IC50 at α-glucosidase [2] of 190 nM.

The values are drawn from paper PMC9709641 (Frontiers in Plant Science, 2022).
